Assay results taken from patent US10927098B2, “Hydroxyalkyl-substituted triazole derivatives and uses thereof” (Bayer Pharma Aktiengesellschaft, priority 2016, dated 2021).

Key:
human V1a receptor = target: T1, human V1a receptor (Homo sapiens, UniProt P37288); experiment: Cellular in vitro assay for determining vasopressin receptor activity, V1a receptor cell line (aequorin luminescence); format: cell-based; settings: for IC50: CHO cell line transfected with the human V1a receptor, [Arg8]-vasopressin at EC50 concentration, read-out: IC50 hV1a; for ratio IC50 hV2/hV1a: ratio of the IC50 values at human V2 and human V1a receptor
T1 construct: expressed in transfected cells; host or cells: CHO K1 (ATCC), also stably transfected with a modified aequorin
Experimental: (§1) B-1. Cellular In Vitro Assay for Determining Vasopressin Receptor Activity
(§2) The identification of agonists and antagonists of the V1a and V2 vasopressin receptors from humans, rats and dogs as well as the quantification of the activity of the compounds of the invention is carried out using recombinant cell lines. These cell lines originally derive from a hamster's ovary epithelial cell (Chinese Hamster Ovary, CHO K1, ATCC: American Type Culture Collection, Manassas, Va. 20108, USA). The test cell lines constitutively express the human, rat or dog V1a or V2 receptors. In case of the Gαq-coupled V1a receptors, cells are also stably transfected with a modified form of the calcium-sensitive photoproteins aequorin (human and rat V1a) or obelin (dog Via), which, after reconstitution with the cofactor coelenterazine, emit light when there are increases in free calcium concentrations [Rizzuto R, Simpson A W, Brini M, Pozzan T, Nature 358, 325-327 (1992); Illarionov B A, Bondar V S, Illarionova V A, Vysotski E S, Gene 153 (2), 273-274 (1995)]. The resulting vasopressin receptor cells react to stimulation of the recombinantly expressed V1a receptors by intracellular release of calcium ions, which can be quantified by the resulting photoprotein luminescence. The Gs-coupled V2 receptors are stably transfected into cell lines expressing the gene for firefly luciferase under control of a CRE-responsible promoter. Activation of V2 receptors induces the activation of the CRE-responsive promoter via cAMP increase, thereby inducing the expression of firefly luciferase. The light emitted by photoproteins of V1a cell lines as well as the light emitted by firefly luciferase of V2 cell lines corresponds to the activation or inhibition of the respective vasopressin receptor. The bioluminescence of the cell lines is detected using a suitable luminometer [Milligan G, Marshall F, Rees S, Trends in Pharmacological Sciences 17, 235-237 (1996)].
Vasopressin V1a Receptor Cell Lines:
On the day before the assay, the cells are plated out in culture medium (DMEM/F12, 2% FCS, 2 mM glutamine, 10 mM HEPES, 5 μg/ml coelenterazine) in 384-well microtiter plates and kept in a cell incubator (96% humidity, 5% v/v CO2, 37° C.). On the day of the assay, test compounds in various concentrations are placed for 10 minutes in the wells of the microtiter plate before the agonist [Arg^8]-vasopressin at EC50 concentration is added. The resulting light signal is measured immediately in a luminometer.
(§3) Table 1A below lists individual IC50 values for the compounds of the invention (including racemic mixtures as well as separated enantiomers) that were obtained from cell lines transfected with the human V1a or V2 receptor: […]

human V2 receptor = target: T2, human V2 receptor (Homo sapiens, UniProt P30518); experiment: Cellular in vitro assay for determining vasopressin receptor activity, V2 receptor cell line (CRE-luciferase); format: cell-based; settings: CHO cell line transfected with the human V2 receptor; [Arg8]-vasopressin at EC50 concentration; read-out: IC50 hV2
T2 construct: expressed in transfected cells; host or cells: CHO K1 (ATCC) expressing firefly luciferase under a CRE-responsive promoter
Experimental: as §1, §2
Vasopressin V2 Receptor Cell Lines:
On the day before the assay, the cells are plated out in culture medium (DMEM/F12, 2% FCS, 2 mM glutamine, 10 mM HEPES) in 384-well microtiter plates and kept in a cell incubator (96% humidity, 5% v/v CO2, 37° C.). On the day of the assay, test compounds in various concentrations and the agonist [Arg^8]-vasopressin at EC50 concentration are added together to the wells, and plates are incubated for 3 hours in a cell incubator. Upon addition of the cell lysis reagent Triton™ and the substrate luciferin, luminescence of firefly luciferase is measured in a luminometer.
as §3

T1 sequence (P37288 whole entry): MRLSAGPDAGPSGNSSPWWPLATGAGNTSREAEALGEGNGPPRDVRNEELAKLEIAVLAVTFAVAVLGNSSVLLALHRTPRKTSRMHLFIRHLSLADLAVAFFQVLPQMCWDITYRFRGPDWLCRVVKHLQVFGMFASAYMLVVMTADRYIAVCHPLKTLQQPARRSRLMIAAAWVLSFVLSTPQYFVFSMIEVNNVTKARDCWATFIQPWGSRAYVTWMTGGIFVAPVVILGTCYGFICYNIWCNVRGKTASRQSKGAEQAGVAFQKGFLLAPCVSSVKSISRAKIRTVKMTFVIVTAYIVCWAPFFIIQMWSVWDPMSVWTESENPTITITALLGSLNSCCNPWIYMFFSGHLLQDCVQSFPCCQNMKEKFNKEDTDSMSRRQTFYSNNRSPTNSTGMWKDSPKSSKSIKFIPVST
T2 sequence (P30518 whole entry): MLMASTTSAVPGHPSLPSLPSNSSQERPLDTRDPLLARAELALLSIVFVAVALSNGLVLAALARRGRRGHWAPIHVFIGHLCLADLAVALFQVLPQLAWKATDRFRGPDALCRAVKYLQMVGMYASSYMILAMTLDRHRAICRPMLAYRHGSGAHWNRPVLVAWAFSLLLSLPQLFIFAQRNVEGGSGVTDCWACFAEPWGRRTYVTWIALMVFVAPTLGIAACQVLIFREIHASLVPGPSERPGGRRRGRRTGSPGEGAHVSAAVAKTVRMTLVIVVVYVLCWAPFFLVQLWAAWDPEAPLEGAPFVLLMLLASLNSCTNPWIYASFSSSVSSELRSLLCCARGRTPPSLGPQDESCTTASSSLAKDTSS

IC50 (human V1a receptor) [nM] | ratio IC50 hV2/hV1a (human V1a receptor) | IC50 (human V2 receptor) [nM] | SMILES
16.5 | 4.6 | 76 | CC(O)(C(=O)O)c1nc(Cn2nc(-c3ccc(Cl)cc3)n(C[C@H](O)C(F)(F)F)c2=O)nn1-c1ccccc1Cl (mixture of isomers) [Example 14, 2-[1-(2-Chlorophenyl)-3-({3-(4-chlorophenyl)-5-oxo-4-[(2S)-3,3,3-trifluoro-2-hydroxypropyl]-4,5-dihydro-1H-1,2,4-triazol-1-yl}methyl)-1H-1,2,4-triazol-5-yl]-2-hydroxypropanoic acid]
0.8 | 6.4 | 5.1 | CC(C)C(O)c1nc(Cn2nc(-c3ccc(Cl)cc3)n(C[C@H](O)C(F)(F)F)c2=O)nn1-c1ccccc1Cl (mixture of isomers) [Example 7, 5-(4-Chlorophenyl)-2-{[1-(2-chlorophenyl)-5-(1-hydroxy-2-methylpropyl)-1H-1,2,4-triazol-3-yl]methyl}-4-[(2S)-3,3,3-trifluoro-2-hydroxypropyl]-2,4-dihydro-3H-1,2,4-triazol-3-one]
6.6 | 3.8 | 24.9 | CC(C)(O)c1nc(Cn2nc(-c3ccc(Cl)cc3)n(C[C@H](O)C(F)(F)F)c2=O)nn1-c1cccc(F)c1 [Example 1, 5-(4-Chlorophenyl)-2-{[1-(3-fluorophenyl)-5-(2-hydroxypropan-2-yl)-1H-1,2,4-triazol-3-yl]methyl}-4-[(2S)-3,3,3-trifluoro-2-hydroxypropyl]-2,4-dihydro-3H-1,2,4-triazol-3-one]
0.6 | 3.7 | 2.2 | CC(C)C(O)c1nc(Cn2nc(-c3ccc(Cl)cc3)n(C[C@H](O)C(F)(F)F)c2=O)nn1-c1ccccc1Cl (single isomer, unassigned) [Example 8]
0.7 | 6.7 | 4.7 | CCC(O)c1nc(Cn2nc(-c3ccc(Cl)cc3)n(C[C@H](O)C(F)(F)F)c2=O)nn1-c1ccccc1Cl (mixture of isomers) [Example 4, 5-(4-Chlorophenyl)-2-{[1-(2-chlorophenyl)-5-(1-hydroxypropyl)-1H-1,2,4-triazol-3-yl]methyl}-4-[(2S)-3,3,3-trifluoro-2-hydroxypropyl]-2,4-dihydro-3H-1,2,4-triazol-3-one]
0.9 | 28.2 | 25.4 | CC(C)C(O)c1nc(Cn2nc(-c3ccc(Cl)cc3)n(C[C@H](O)C(F)(F)F)c2=O)nn1-c1ccccc1Cl (single isomer, unassigned) [Example 9]
14.9 | 0.1 | 1.8 | O=c1n(Cc2nc(C(O)C(F)(F)F)n(-c3cccc(Cl)c3)n2)nc(-c2ccc(Cl)cc2)n1C[C@H](O)C(F)(F)F (single isomer, unassigned) [Example 11]
21.9 | 0.2 | 3.3 | CC(C)(O)c1nc(Cn2nc(-c3ccc(Cl)cc3)n(C[C@H](O)C(F)(F)F)c2=O)nn1-c1cccc(Cl)c1 [Example 2, 5-(4-Chlorophenyl)-2-{[1-(3-chlorophenyl)-5-(2-hydroxypropan-2-yl)-1H-1,2,4-triazol-3-yl]methyl}-4-[(2S)-3,3,3-trifluoro-2-hydroxypropyl]-2,4-dihydro-3H-1,2,4-triazol-3-one]
2.1 | 3.3 | 6.9 | CC(C)(O)c1nc(Cn2nc(-c3ccc(Cl)cc3)n(C[C@H](O)C(F)(F)F)c2=O)nn1-c1ccccc1Cl [Example 13, 5-(4-Chlorophenyl)-2-{[1-(2-chlorophenyl)-5-(2-hydroxypropan-2-yl)-1H-1,2,4-triazol-3-yl]methyl}-4-[(2S)-3,3,3-trifluoro-2-hydroxypropyl]-2,4-dihydro-3H-1,2,4-triazol-3-one]
1.6 | 2.6 | 4.2 | CCC(O)c1nc(Cn2nc(-c3ccc(Cl)cc3)n(C[C@H](O)C(F)(F)F)c2=O)nn1-c1ccccc1Cl (single isomer, unassigned) [Example 5]
13.5 | 0.2 | 2.1 | O=c1n(Cc2nc(C(O)C(F)(F)F)n(-c3cccc(Cl)c3)n2)nc(-c2ccc(Cl)cc2)n1C[C@H](O)C(F)(F)F (mixture of isomers) [Example 10, 5-(4-Chlorophenyl)-2-{[1-(3-chlorophenyl)-5-(2,2,2-trifluoro-1-hydroxyethyl)-1H-1,2,4-triazol-3-yl]methyl}-4-[(2S)-3,3,3-trifluoro-2-hydroxypropyl]-2,4-dihydro-3H-1,2,4-triazol-3-one]
0.7 | 12.0 | 8.4 | CCC(O)c1nc(Cn2nc(-c3ccc(Cl)cc3)n(C[C@H](O)C(F)(F)F)c2=O)nn1-c1ccccc1Cl (single isomer, unassigned) [Example 6]
3.5 | 7.6 | 26.5 | CC(O)(C(=O)O)c1nc(Cn2nc(-c3ccc(Cl)cc3)n(C[C@H](O)C(F)(F)F)c2=O)nn1-c1ccccc1Cl (single isomer, unassigned) [Example 15]
2.2 | 15.8 | 34.8 | O=c1n(Cc2nc(C(O)C(F)(F)F)n(-c3cccc(Cl)c3)n2)nc(-c2ccc(Cl)cc2)n1C[C@H](O)C(F)(F)F (single isomer, unassigned) [Example 12]
0.8 | 2.4 | 1.9 | COc1ccccc1-n1nc(Cn2nc(-c3ccc(Cl)cc3)n(C[C@H](O)C(F)(F)F)c2=O)nc1C(C)(C)O [Example 3, 5-(4-Chlorophenyl)-2-{[5-(2-hydroxypropan-2-yl)-1-(2-methoxyphenyl)-1H-1,2,4-triazol-3-yl]methyl}-4-[(2S)-3,3,3-trifluoro-2-hydroxypropyl]-2,4-dihydro-3H-1,2,4-triazol-3-one]
5.5 | 45.8 | 252 | CC(O)(C(=O)O)c1nc(Cn2nc(-c3ccc(Cl)cc3)n(C[C@H](O)C(F)(F)F)c2=O)nn1-c1ccccc1Cl (single isomer, unassigned) [Example 16]
